# Data reported in patent US6239128A, “Indole-2,3-dione-3-oxime derivatives for therapeutic use” (Neurosearch A/S, priority 1998, dated 2001).
# Molecular target: AMPA receptor
# Assay: in vitro receptor affinity test: inhibition of specific binding of ^3 H-AMPA
# Design: species or system male Wistar rats (cerebral cortex)
# Settings: rat cerebral cortex membranes; ^3 H-AMPA 5 nM; 30 minutes at 2° C.; 30 mM Tris-HCl, 2.5 mM CaCl2, 100 mM KSCN, pH 7.4; read-out: IC50 (the concentration (μM) of the test substance which inhibits the specific binding of ^3 H-AMPA by 50%)
# Text: In an in vitro activity (receptor affinity) test, the chemical compounds of the present invention have been tested for their affinity for the AMPA receptor.
# L-glutamate (GLU) is the major excitatory neurotransmitter in the mammalian central nervous system. From electro-physiological- and binding studies, there appear to be at least three subtypes of GLU receptors, tentatively named N-methyl-D-aspartate (NMDA) receptors, quisqualate receptors and kainate receptors. AMPA has been known for several years to be a potent and selective agonist at the traditionally named quisqualate receptors. Activation of quisqualate receptors by AMPA is associated with Na^+ influx and K^+ efflux leading to depolarisation. ^3 H-AMPA is a selective radioligand for labelling the ionotropic quisqualate (AMPA) receptors.
# Preparations are performed at 0-4° C. unless otherwise indicated. Cerebral cortex from male Wistar rats (150-200 g) is homogenised for 5-10 sec in 20 ml Tris-HCl (30 mM, pH 7.4) using an Ultra-Turrax™ homogeniser. The suspension is centrifuged at 27,000×g for 15 minutes and the pellet is washed three times with buffer (centrifuged at 27,000×g for 10 minutes). The washed pellet is homogenised in 20 ml of buffer and incubated on a water bath (of 37° C) for 30 minutes to remove endogenous glutamate and then centrifuged for 10 minutes at 27,000×g. The pellet is then homogenised in buffer and centrifuged at for 10 minutes at 27,000×g. The final pellet is resuspended in 30 ml buffer and the preparation is frozen and stored at -20° C.
# The membrane preparation is thawed and centrifuged at 2° C. for 10 minutes at 27,000×g. […] Non-specific binding is determined using L-glutamate (0.6 mM, final concentration).
# After incubation the 550 μl samples are added 5 ml of ice-cold buffer and poured directly onto Whatman™ GF/C glass fibre filters under suction and immediately washed with 5 ml of ice-cold buffer. […] The amount of radioactivity on the filters is determined by conventional liquid scintillation counting. […]
row,IC50,SMILES
1,0.05 µM,"CN1CCc2c(-c3ccc(S(=O)(=O)N(C)C)cc3)cc3c(c2C1)NC(=O)C3=NOC(CCO)C(=O)O (stereo not drawn) [8-methyl-5-(4-(N,N-dimethylsulfamoyl)phenyl)-6-7-8-9-tetrahydro-1H-pyrrolo[3,2-h]isoquinoline-2,3-dione-3-O-(4-hydroxybutyric acid-2-yl)oxime]"
2,0.15 µM,"CN1CCc2c(-c3ccc(S(=O)(=O)N(C)C)cc3)cc3c(c2C1)NC(=O)C3=NOC1CCOC1=O (stereo not drawn) [8-methyl-5-(4-(N,N-dimethylsulfamoyl)phenyl)-6-7-8-9-tetrahydro-1H-pyrrolo[3,2-h]-isoquinoline-2,3-dione-3-O-(3-(2-oxo)tetrahydrofuryl)oxime]"
3,0.1 µM,"CCOC(=O)CON=C1C(=O)Nc2c1cc(-c1ccc(S(=O)(=O)N(C)C)cc1)c1c2CN(C)CC1 [8-methyl-5-(4-(N,N-dimethylsulphamoyl)phenyl-6,7,8,9-tetrahydro-1H-pyrrolo[3,2-h]isoquinoline-2,3-dione-3-O-(ethoxycarbonylmethyl)oxime]"
